The values below are quoted from earlier work in article PMC6422283 (Future medicinal chemistry, 2015).

This data set relates to TRPV1. The settings on record: capsaicin-induced Ca2+ flux into HEK293 cells.

The structures appear in SMILES notation.

As to `Oc1cc2c(cc1O)CN(C(=S)NCCc1ccc(Cl)cc1)CCC2` [Compound 2, capsazepine], the IC50 is 100 nM. For `Cc1nc2cc(NC(=O)c3ccc(-c4ccc(F)cc4)nc3C)ccc2s1` [SB782443], the IC50 was 49 nM.
